These results are taken from patent US20250163002A1, “FUSED QUINONOXIME IMIDAZOLE, ONIUM DERIVATIVES THEREOF, PREPARATION AND USE THEREOF” (SHANGHAI JIAO TONG UNIVERSITY, priority 2022, published 2025).

As usually defined, the IC50 is the concentration that gives 50% inhibition.

In one series the test system is MCF-7. Put plainly: In vitro inhibition test for cancer cell proliferation (MTT), MCF-7. It counts as cell-based. Particulars: 24 h or 48 h after addition, unit inferred.
A further series relates to A549. Put plainly: In vitro inhibition test for cancer cell proliferation (MTT), A549. To be noted: 24 h or 48 h after addition, unit inferred. It is filed as cell-based.
The next series concerns HeLa. Put plainly: In vitro inhibition test for cancer cell proliferation (MTT), HeLa. It counts as cell-based. To be noted: 24 h or 48 h after addition, unit inferred.
For another series, the system named is Adenovirus. The experiment in a line: Antiviral activity, plaque test in 293A cells. It counts as cell-based. Particulars: adenovirus in 293A cells; for non-CPE blank plaques observed: observation by day. How it is done: Experimental method: 4.59 mg of the compound 125 were weighed and put to a 15 mL centrifugal tube with the addition of 10 mL of sterile water, and dissolved via vortex oscillation until there was no obvious yellow particle, then subpackaged and stored at −20° C., 200 μL/piece (concentration: 1 mM); 2.79 mg Cidofovir (molecular weight: 279) were weighed and added to the 15 mL centrifugal tube, dissolved with the addition of 10 mL sterile water, then subpackaged and stored at −20° C., 200 μL/piece (concentration: 1 mM).
Plaque test: • 1. 293A cells were paved into a 24-well plate with 150,000 cells per well, and cultured at 37° C. for 12-24 h, then used for test after growing to 90%. • 2. 2% low-melting point agarose gel was melted and put to a 56° C. water bath kettle for further use. • 3. Adenovirus having a titer of 10^9 TCID^50/mL was diluted by 10^5 folds; medium in the 24-well plate was removed, and 200 μL of adenoviral diluent was added per well and incubated in a 37° C. 5% CO2 incubator, shaken once every 30 min, and incubated for 1 h in total. • 4. The drug compound 125 to be tested and Cidofovir were double diluted with 2×MEM (16 μL compound 125 was added to 8 mL of 2×MEM, oscillated and mixed well, then 4 mL mixed solution was taken and added to fresh 4 mL of 2×MEM and mixed well, and 5 dilutions were conducted, being 2 μM, 1 μM, 500 nM, 250 nM, and 125 nM, respectively; the maximum concentration of the compound 125 was 1 μM. Similarly, 400 μL Cidofovir was added to 7.6 mL of 2×MEM, oscillated and mixed well, then 4 mL mixed solution was taken and added to fresh 4 mL of 2×MEM and mixed well, and 5 dilutions were conducted, being 50 μM, 25 μM, 12.5 μM, 6.25 μM, and 3.125 μM, respectively); the diluted solution was put at 37° C. for further use. • 4. The viral solution was discarded, and agarose gel preheated at 56° C. was added to 2×MEM by the same volume and mixed well, and then 2 mL of mixed solution was added per well, and incubated at room temperature for 30 min (gel). • 5. […]

For a further series, the system named is L929. Put plainly: In vitro cell proliferation inhibition test (MTT), L929. To be noted: 24 h or 48 h after addition, unit inferred. It counts as cell-based.
Series [1] is described as follows: Compound toxicity test, body weight changes. It counts as in vivo, balb/c mice. Particulars: tail intravenous injection, 5 mg/kg every day for 7 consecutive days. The method, then:
Test method: the compounds 121, 123, 124, 125, 128, 132, 137, 138, 139, 140, 143, 144, 145, 146, and 147 in the examples of the present invention were administered every day via tail intravenous injection at a dose of 5 mg/kg for 7 consecutive days, and then body weight changes of the balb/c mice were monitored.

A further series deals with myeloma cell RPMI-8226. The experiment in a line: In vitro proliferation inhibition, RPMI-8226. It counts as cell-based. Particulars: unit inferred. The method, then: (§1) Test method: pancreatic cancer cells CFPAC-1 were cultured in a Dalbeco-improved Eagle medium with the addition of 10% FBS and 5% double-antibody. CFPAC-1 cancer cells were inoculated into a 96-well plate for incubation for 24 h; in the following day, test compounds having various concentrations of (100, 20, 10, 1, 0.1, 0.01, and 0.001 μM) and positive control agents were added per well; corresponding volume of fresh medium was added to blank control. After addition for 24 h or 48 h, cell proliferation was evaluated by chromogenic reaction of MTT formazan.
(§2) In addition, compounds (I), (II), (III), and (IV) of the present invention have good inhibition activity against the proliferation of other cancer cells, including non-small cell lung cancer cell (H460, H1299), liver tumor cell (HepG2), rectal cancer cell (HT29), leukemia cell (CCRF-CEM), prostate cancer cell (PC-3), ovarian carcinoma cell (SKOV-3), melanoma cell (A375), myeloma cell (RPMI-8226), esophageal carcinoma cell (TE-1), pancreatic cancer cell (CFPAC-1, PANC-1, SW1990, ASPC-1, and BXPC-3), bladder cancer cell (5637), and gastric cancer cell (KATO-III).

The test system of series [2] is pancreatic cancer cell SW1990. The experiment in a line: In vitro proliferation inhibition, SW1990. To be noted: unit inferred. It is filed as cell-based. How it is done: as §1, §2
Series [3] concerns pancreatic cancer cell BXPC-3. Put plainly: In vitro proliferation inhibition, BXPC-3. It counts as cell-based. Particulars: unit inferred. The method, then:
as §1, §2

Series [4] has as its system CFPAC-1 pancreatic cancer cells. Put plainly: In vivo inhibition test of cancer cell proliferation, CFPAC-1 transplant. Details: species or system Balb/c naked mouse. Particulars: 7 mg/kg, once every other three days, 7 times; gross tumor volume. The method, then: Test method: 3×10^7 CFPAC-1 pancreatic cancer cells were transplanted to subcutaneous tissues of armpit of a Balb/c naked mouse; administration was conducted when the tumor grew to 50-100 mm^3, 100-200 mm^3, and greater than 200 mm^3; the mouse was administered once every other three days, 7 times in total, and 7 mg/kg each time. Normal saline was injected in the control group. Tumor length and diameter were measured by calipers and weight of the moue was weighed until the next day of the final administration. Gross tumor volume was calculated by the following equation:
gross tumor volume (mm^3)=½×[short diameter (mm)]^2×long diameter (mm)

A further series concerns rectal cancer cell HT29. Put plainly: In vitro proliferation inhibition, HT29. It counts as cell-based. To be noted: unit inferred. The method, then: as §1, §2
Series [5] concerns non-small cell lung cancer cell H1299. Put plainly: In vitro proliferation inhibition, H1299. It is filed as cell-based. To be noted: unit inferred. The method, then:
as §1, §2

Another series concerns melanoma cell A375. Put plainly: In vitro proliferation inhibition, A375. It is filed as cell-based. To be noted: unit inferred. The method, then: as §1, §2
The test system of series [6] is ovarian carcinoma cell SKOV-3. Put plainly: In vitro proliferation inhibition, SKOV-3. It counts as cell-based. Particulars: unit inferred. The method, then:
as §1, §2

Series [7] has as its system esophageal carcinoma cell TE-1. The experiment in a line: In vitro proliferation inhibition, TE-1. It counts as cell-based. To be noted: unit inferred. How it is done:
as §1, §2

The test system of the next series is leukemia cell CCRF-CEM. Put plainly: In vitro proliferation inhibition, CCRF-CEM. It is filed as cell-based. To be noted: unit inferred. The method, then: as §1, §2
The test system of series [8] is pancreatic cancer cell PANC-1. The experiment in a line: In vitro proliferation inhibition, PANC-1. It is filed as cell-based. To be noted: unit inferred. The method, then: as §1, §2
A further series deals with bladder cancer cell 5637. Put plainly: In vitro proliferation inhibition, 5637. It counts as cell-based. Particulars: unit inferred. How it is done:
as §1, §2

Series [9] relates to prostate cancer cell PC-3. The experiment in a line: In vitro proliferation inhibition, PC-3. It is filed as cell-based. Particulars: unit inferred. The method, then: as §1, §2
A further series has as its system liver tumor cell HepG2. The experiment in a line: In vitro proliferation inhibition, HepG2. It is filed as cell-based. Particulars: unit inferred. How it is done: as §1, §2
In series [10] the test system is pancreatic cancer cells CFPAC-1. Put plainly: In vitro proliferation inhibition, CFPAC-1. It counts as cell-based. Particulars: unit inferred. How it is done: as §1, §2
The test system of series [11] is non-small cell lung cancer cell H460. The experiment in a line: In vitro proliferation inhibition, H460. It counts as cell-based. Particulars: unit inferred. The method, then: as §1, §2
The subject of series [12] is pancreatic cancer cell ASPC-1. Put plainly: In vitro proliferation inhibition, ASPC-1. It is filed as cell-based. To be noted: unit inferred. How it is done:
as §1, §2

Series [13] has as its system gastric cancer cell KATO-III. The experiment in a line: In vitro proliferation inhibition, KATO-III. It is filed as cell-based. To be noted: unit inferred. The method, then:
as §1, §2

Take `CC(C)ON=C1c2ccccc2C(=O)c2c1[n+](C)cn2C.[I-]` [Compound 127, (E) and (Z)-4-(isopropoxyimino)-1,3-dimethyl-9-oxo-4,9-dihydro-1H-naphthol[2,3-d]imidazole-3-iodide]: the IC50 with MCF-7 turned out to be 7900 nM; in the series on A549, 90 nM; with HeLa, 25100 nM; in the series on L929, 29600 nM. The “non-CPE blank plaques observed” value in the series with Adenovirus is reported as 5 days later, non-CPE blank plaque also appeared in the low concentration group.

Take `Nc1ccn([C@@H]2O[C@H](CO)[C@@H](O)C2(F)F)c(=O)n1` [gemcitabine]: in series [1], the “condition and body weight changes of the mice” value is “obviously reduced weight and are dispirited”.

In the case of `Nc1ccn(C[C@@H](CO)OCP(=O)(O)O)c(=O)n1` [Cidofovir, reference compound], the “non-CPE blank plaques observed” value in the series on Adenovirus was 4 days later, lots of blank plaques formed by non-CPE could be observed.

Consider `Cn1c[n+](C)c2c1C(=O)c1ccccc1C2=NOCc1ccccc1.[I-]` [Compound 125, (E) and (Z)-4-((benzyloxy)imino)-1,3-dimethyl-9-oxo-4,9-dihydro-1H-naphthol[2,3-d]imidazole-3-iodide], for which the IC50 in the series on MCF-7 amounted to 4500 nM; in the series with myeloma cell RPMI-8226 it was 89000 nM; in series [2], 9 nM; in the series on A549, 5 nM; in series [3] it was 3 nM; with rectal cancer cell HT29, 5400 nM. Besides, the 50% inhibitory concentration (IC50) in series [5] amounted to 260 nM; in the series with melanoma cell A375 it was 2210 nM; in [6], 90 nM; in series [7], 60 nM; in the series on leukemia cell CCRF-CEM, 90 nM; in series [8], 970 nM. Also, the IC50 in the series on bladder cancer cell 5637 is 40 nM; in series [9], 26500 nM; in the series on liver tumor cell HepG2, 9 nM; with HeLa it was 5300 nM; in the series on L929, 45300 nM; in series [10] it was 6 nM. In addition, the IC50 came to 160 nM in series [11], 5 nM in series [12] and 9 nM in [13]. The “proliferation inhibition activity / inhibition ratio” value in series [4] is 100%. The “effect on viral replication” value in the series on Adenovirus was “inhibiting effect on viral replication”.
